From EPA's ToxValDB 9.5 (doi:10.2903/j.efsa.2012.2879) come the findings set out here.

Converted amounts (≈) assume the structure as drawn.

Data set [1] relates to Anas platyrhynchos.
In data set [2] the test system is Apis mellifera. To be noted: acute; duration: 48 hours; dermal; mortality.
Data set [3] relates to Colinus virginianus. The conditions noted are these: acute, oral, mortality.
Data set [4] has as its system Daphnia magna. The conditions noted are these: chronic/long-term; duration: 21 days; reproduction.
Data set [5] concerns Mus musculus.
For data set [6], the system named is Oncorhynchus mykiss.
In data set [7] the test system is Rattus norvegicus.
The test system of data set [8] is Tagia sp.

The NOAEL is the highest tested level that showed no adverse finding. In the case of `Cc1cc(C)c(C2=C(OC(=O)CC(C)(C)C)C3(CCCC3)OC2=O)c(C)c1` [Spiromesifen], the NOEC was found to be 229 mg/kg in data set [1] (reproductive, reproduction); 0.00025 mg/L in data set [4]; 0.00473 mg/L in data set [6] (chronic/long-term, duration: 97 days); 30 mg/kg-day in data set [7] (reproduction developmental, reproduction); 4.32 mg/kg in data set [8] (chronic/long-term, duration: 56 days, reproduction). Besides, the LC50 is above 5000 mg/kg in data set [1] (short-term, oral, feed, mortality); above 5000 mg/kg in data set [3] (diet); 0.016 µg/mL (≈ 0.0432 µM) in data set [6] (acute, duration: 96 hours, mortality); above 1000 mg/kg in data set [8] (acute, duration: 14 days, mortality). Moreover, the LD50 in data set [2] was above 200 µg/piece; in data set [3] it was above 2000 mg/kg; in data set [7] (acute, oral, mortality), above 2500 mg/kg. For the same molecule, the NOAEL in data set [5] (chronic, duration: 18 months) stood at 3 mg/kg-day; in data set [5] (subchronic, duration: 90 days, oral, clinical chemistry), 3 mg/kg-day; in data set [7] (acute, neurology), 2000 mg/kg-day.
